Assay results published in patent publication US8138183B2, “Morpholino pyrimidine derivatives used in diseases linked to mTOR kinase and/or PI3K” (AstraZeneca AB, priority 2007, dated 2012).

Target: recombinant mTOR (Homo sapiens, UniProt P42345)
Assay: In Vitro mTOR Kinase Assay (Echo), Test (a)(ii) (AlphaScreen)
Format: biochemical
Settings: Echo acoustic dispensing
Procedure: (a)(ii) In Vitro mTOR Kinase Assay (Echo)
The assay used AlphaScreen technology (Gray et al., Analytical Biochemistry, 2003, 313: 234-245) to determine the ability of test compounds to inhibit phosphorylation by recombinant mTOR.
The HEK293 FLAG-tagged mTOR (1362-2549) stable cell line was routinely maintained at 37° C. with 5% CO2 up to a confluency of 70-90% in Dulbecco's modified Eagle's growth medium (DMEM; Invitrogen Limited, Paisley, UK Catalogue No. 41966-029) containing 10% heat-inactivated foetal calf serum (FCS; Sigma, Poole, Dorset, UK, Catalogue No. F0392), 1% L-glutamine (Gibco, Catalogue No. 25030-024) and 2 mg/ml Geneticin (G418 sulfate; Invitrogen Limited, UK Catalogue No. 10131-027). Following expression in the mammalian HEK293 cell line, expressed protein was purified using the FLAG epitope tag using standard purification techniques.
Aliquots ([…]) of each compound dilution were acoustically […] using a Labcyte Echo 550 into a well of a Greiner 384-well low volume (LV) white polystyrene plate (Greiner Bio-one). A […] mixture of recombinant purified mTOR enzyme, 1 μM biotinylated peptide substrate (Biotin-Ahx-[…]NH2; Bachem UK Ltd), ATP (20 μM) and a buffer solution [comprising Tris-HCl pH7.4 buffer (50 mM), EGTA (0.1 mM), bovine serum albumin (0.5 mg/mL), DTT (1.25 mM) and manganese chloride (10 mM)] was incubated at room temperature for […].
These assay solutions were incubated for 2 hours at room temperature.
Each reaction was stopped by the addition of […] of a mixture of EDTA (50 mM), bovine serum albumin (BSA; 0.5 mg/mL) and Tris-HCl pH7.4 buffer (50 mM) containing
p70 S6 Kinase (T389) 1A5 Monoclonal Antibody (Cell Signalling Technology, Catalogue No. 9206B) and AlphaScreen Streptavidin donor and Protein A acceptor beads (200 ng; Perkin Elmer, Catalogue No. 6760002B and 6760137R respectively) were added and the assay plates were left overnight at room temperature in the dark. The resultant signals arising from laser light excitation at 680 nm were read using a Packard Envision instrument.
The phosphorylated biotinylated peptide that is associated with AlphaScreen Streptavidin donor beads forms a complex with the p70 S6 Kinase (T389) 1A5 Monoclonal Antibody that is associated with Alphascreen Protein A acceptor beads. Upon laser light excitation at 680 nm, the donor bead : acceptor bead complex produces a signal that can be measured. Accordingly, the presence of mTOR kinase activity results in an assay signal. In the presence of an mTOR kinase inhibitor, signal strength is reduced. mTOR enzyme inhibition for a given test compound was expressed as an IC50 value.

Chain of recombinant mTOR (P42345 1362-2549): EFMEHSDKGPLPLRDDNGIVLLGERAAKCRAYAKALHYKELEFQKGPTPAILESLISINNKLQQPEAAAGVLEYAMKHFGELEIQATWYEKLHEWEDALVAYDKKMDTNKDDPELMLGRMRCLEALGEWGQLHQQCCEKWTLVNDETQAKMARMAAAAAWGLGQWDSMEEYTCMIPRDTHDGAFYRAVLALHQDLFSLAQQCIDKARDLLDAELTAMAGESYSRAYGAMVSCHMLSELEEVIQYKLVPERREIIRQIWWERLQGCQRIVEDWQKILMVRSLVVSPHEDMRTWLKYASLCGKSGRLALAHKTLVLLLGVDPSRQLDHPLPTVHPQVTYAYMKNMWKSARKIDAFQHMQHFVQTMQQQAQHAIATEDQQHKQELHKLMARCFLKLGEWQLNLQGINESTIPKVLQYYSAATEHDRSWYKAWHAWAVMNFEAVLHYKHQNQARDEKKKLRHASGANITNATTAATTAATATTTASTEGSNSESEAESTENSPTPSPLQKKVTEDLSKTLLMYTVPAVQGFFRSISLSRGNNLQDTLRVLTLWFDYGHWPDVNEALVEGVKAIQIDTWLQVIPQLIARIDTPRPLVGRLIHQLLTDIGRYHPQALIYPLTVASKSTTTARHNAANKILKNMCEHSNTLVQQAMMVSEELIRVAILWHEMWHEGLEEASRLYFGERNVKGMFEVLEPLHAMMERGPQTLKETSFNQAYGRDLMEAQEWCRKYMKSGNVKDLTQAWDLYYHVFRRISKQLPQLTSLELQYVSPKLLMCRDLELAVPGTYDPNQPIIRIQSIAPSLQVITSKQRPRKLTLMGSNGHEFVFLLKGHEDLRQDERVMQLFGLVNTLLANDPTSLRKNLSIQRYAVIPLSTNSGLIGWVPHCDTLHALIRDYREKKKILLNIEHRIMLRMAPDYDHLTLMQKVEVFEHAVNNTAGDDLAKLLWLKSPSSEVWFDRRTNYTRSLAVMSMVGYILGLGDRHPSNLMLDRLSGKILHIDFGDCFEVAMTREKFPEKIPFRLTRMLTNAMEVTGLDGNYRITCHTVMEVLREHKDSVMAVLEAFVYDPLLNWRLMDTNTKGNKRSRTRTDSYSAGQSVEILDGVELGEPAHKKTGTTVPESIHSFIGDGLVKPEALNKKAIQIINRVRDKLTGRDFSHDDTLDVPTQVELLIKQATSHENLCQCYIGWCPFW

Row | IC50 | SMILES
1 | 19.7 nM | C[C@H]1COCCN1c1cc(CS(C)(=O)=O)nc(-c2ccc(NC(=S)NC3CC3)cc2)n1 [Example 1, 3-Cyclopropyl-1-[4-[4-[(3S)-3-methylmorpholin-4-yl]-6-(methylsulfonylmethyl)pyrimidin-2-yl]phenyl]thiourea]
2 | 17.7 nM | CCNC(=S)Nc1ccc(-c2nc(CS(C)(=O)=O)cc(N3CCOC[C@@H]3C)n2)cc1 [Example 1a, 3-ethyl-1-[4-[4-[(3S)-3-methylmorpholin-4-yl]-6-(methylsulfonylmethyl)pyrimidin-2-yl]phenyl]thiourea]
3 | 68.8 nM | COc1ccc(NC(=S)Nc2ccc(-c3nc(CS(C)(=O)=O)cc(N4CCOC[C@@H]4C)n3)cc2)cc1 [Example 1c, 3-(4-methoxyphenyl)-1-[4-[4-[(3S)-3-methylmorpholin-4-yl]-6-(methylsulfonylmethyl)pyrimidin-2-yl]phenyl]thiourea]
4 | 21.5 nM | C[C@H]1COCCN1c1cc(CS(C)(=O)=O)nc(-c2ccc(NC(=S)Nc3ccc(F)cc3)cc2)n1 [Example 1d, 3-(4-fluorophenyl)-1-[4-[4-[(3S)-3-methylmorpholin-4-yl]-6-(methylsulfonylmethyl)pyrimidin-2-yl]phenyl]thiourea]
5 | 4.77 nM | C[C@H]1COCCN1c1cc(C(C)(C)S(C)(=O)=O)nc(-c2ccc(NC(=S)NC3CC3)cc2)n1 [Example 2, 3-Cyclopropyl-1-[4-[4-[(3S)-3-methylmorpholin-4-yl]-6-(2-methylsulfonylpropan-2-yl)pyrimidin-2-yl]phenyl]thiourea]
6 | 5.1 nM | CNC(=S)Nc1ccc(-c2nc(N3CCOC[C@@H]3C)cc(C(C)(C)S(C)(=O)=O)n2)cc1 [Example 2a, 3-methyl-1-[4-[4-[(3S)-3-methylmorpholin-4-yl]-6-(2-methylsulfonylpropan-2-yl)pyrimidin-2-yl]phenyl]thiourea]
7 | 6.8 nM | CCNC(=S)Nc1ccc(-c2nc(N3CCOC[C@@H]3C)cc(C(C)(C)S(C)(=O)=O)n2)cc1 [Example 2b, 3-ethyl-1-[4-[4-[(3S)-3-methylmorpholin-4-yl]-6-(2-methylsulfonylpropan-2-yl)pyrimidin-2-yl]phenyl]thiourea]
8 | 305 nM | C[C@H]1COCCN1c1cc(C(C)(C)S(C)(=O)=O)nc(-c2ccc(NC(=S)NCCN(C)C)cc2)n1 [Example 2d, 3-(2-dimethylaminoethyl)-1-[4-[4-[(3S)-3-methylmorpholin-4-yl]-6-(2-methylsulfonylpropan-2-yl)pyrimidin-2-yl]phenyl]thiourea]
9 | 11 nM | CNC(=S)Nc1ccc(-c2nc(N3CCOC[C@@H]3C)cc(C(C)(C)S(=O)(=O)c3ccccc3)n2)cc1 [Example 3, 1-[4-[4-[2-(Benzenesulfonyl)propan-2-yl]-6-[(3S)-3-methylmorpholin-4-yl]pyrimidin-2-yl]phenyl]-3-methylthiourea]
10 | 7.17 nM | C[C@H]1COCCN1c1cc(C(C)(C)S(=O)(=O)c2ccccc2)nc(-c2ccc(NC(=S)NC3CC3)cc2)n1 [Example 3a, 1-[4-[4-[2-(benzenesulfonyl)propan-2-yl]-6-[(3S)-3-methylmorpholin-4-yl]pyrimidin-2-yl]phenyl]-3-cyclopropylthiourea]
11 | 12.4 nM | CCNC(=S)Nc1ccc(-c2nc(N3CCOC[C@@H]3C)cc(C(C)(C)S(=O)(=O)c3ccccc3)n2)cc1 [Example 3b, 1-[4-[4-[2-(benzenesulfonyl)propan-2-yl]-6-[(3S)-3-methylmorpholin-4-yl]pyrimidin-2-yl]phenyl]-3-ethylthiourea]
12 | 3.08 nM | C[C@H]1COCCN1c1cc(C(C)(C)S(=O)(=O)c2ccccc2)nc(-c2ccc(NC(=S)NCCO)cc2)n1 [Example 3c, 1-[4-[4-[2-(benzenesulfonyl)propan-2-yl]-6-[(3S)-3-methylmorpholin-4-yl]pyrimidin-2-yl]phenyl]-3-(2-hydroxyethyl)thiourea]
13 | 161 nM | C[C@H]1COCCN1c1cc(C(C)(C)S(=O)(=O)CCCO)nc(-c2ccc(NC(=S)NC3CC3)cc2)n1 [Example 4, 3-Cyclopropyl-1-[4-[4-[2-(3-hydroxypropylsulfonyl)propan-2-yl]-6-[(3S)-3-methylmorpholin-4-yl]pyrimidin-2-yl]phenyl]thiourea]
14 | 15.5 nM | C[C@H]1COCCN1c1cc(C(C)(C)S(=O)(=O)CCCO)nc(-c2ccc(NC(=S)NCCO)cc2)n1 [Example 4a, 3-(2-hydroxyethyl)-1-[4-[4-[2-(3-hydroxypropylsulfonyl)propan-2-yl]-6-[(3S)-3-methylmorpholin-4-yl]pyrimidin-2-yl]phenyl]thiourea]
15 | 154 nM | CNC(=S)Nc1ccc(-c2nc(N3CCOC[C@@H]3C)cc(C(C)(C)S(=O)(=O)CCCO)n2)cc1 [Example 4b, 1-[4-[4-[2-(3-hydroxypropylsulfonyl)propan-2-yl]-6-[(3S)-3-methylmorpholin-4-yl]pyrimidin-2-yl]phenyl]-3-methylthiourea]
16 | 58.5 nM | CCNC(=S)Nc1ccc(-c2nc(N3CCOC[C@@H]3C)cc(C(C)(C)S(=O)(=O)CCCO)n2)cc1 [Example 4c, 3-ethyl-1-[4-[4-[2-(3-hydroxypropylsulfonyl)propan-2-yl]-6-[(3S)-3-methylmorpholin-4-yl]pyrimidin-2-yl]phenyl]thiourea]
17 | 7.9 nM | C[C@H]1COCCN1c1cc(C(C)(C)O)nc(-c2ccc(NC(=S)NCCO)cc2)n1 [Example 5, 3-(2-Hydroxyethyl)-1-[4-[4-(2-hydroxypropan-2-yl)-6-[(3S)-3-methylmorpholin-4-yl]pyrimidin-2-yl]phenyl]thiourea]
18 | 36.7 nM | CNC(=S)Nc1ccc(-c2nc(N3CCOC[C@@H]3C)cc(C(C)(C)O)n2)cc1 [Example 5a, 1-[4-[4-(2-hydroxypropan-2-yl)-6-[(3S)-3-methylmorpholin-4-yl]pyrimidin-2-yl]phenyl]-3-methylthiourea]
19 | 38.4 nM | C[C@H]1COCCN1c1cc(C(C)(C)O)nc(-c2ccc(NC(=S)NC3CC3)cc2)n1 [Example 5b, 3-cyclopropyl-1-[4-[4-(2-hydroxypropan-2-yl)-6-[(3S)-3-methylmorpholin-4-yl]pyrimidin-2-yl]phenyl]thiourea]
20 | 37.4 nM | CCNC(=S)Nc1ccc(-c2nc(N3CCOC[C@@H]3C)cc(C(C)(C)O)n2)cc1 [Example 5c, 3-ethyl-1-[4-[4-(2-hydroxypropan-2-yl)-6-[(3S)-3-methylmorpholin-4-yl]pyrimidin-2-yl]phenyl]thiourea]
